Test results taken from US10485797B2, “Treatment of pemphigus” (Principia Biopharma Inc., priority 2014, dated 2019).
Like-named read-outs stand apart in the source and are kept apart here.

Experiments:
[1] = test system: pemphigus folliaceus; assay: Dog Pemphigus Foliaceus Study; type: in vivo; settings: for overall efficacy and safety in treatment of PF: single agent
Protocol: A 30 kg Doberman dog with a characteristic first presentation of pemphigus folliaceus on the nose and paws was administered an oral dose of 500 mg daily of the BTK inhibitor (R,E)-2-(3-(4-amino-3-(2-fluoro-4-phenoxyphenyl)-1H-pyrazolo[3,4-d]-pyrimidin-1-yl)piperidine-1-carbonyl)-4,4-dimethylpent-2-enenitrile instead of the usual treatment for pemphigus of high dose corticosteroids (typically 1-2 mg/kg).
The dog responded clinically to the drug as a monotherapy within three days, with improved eating and ambulation noted by the owner.

[2] = target: T1, BTK (Canis lupus familiaris, UniProt A0A8I3P3Z9); assay: BTK occupancy in blood of the treated dog; type: in vivo; settings: 30 kg Doberman dog, oral 500 mg daily; blood taken 24 hours after the first dose; read-out: level of BTK occupancy 24 hours after each dose
T1 construct: from tissue; host or cells: blood of the treated Doberman dog

[3] = cited from earlier work
[4] = ANCA-associated vasculitis, cited from earlier work
[5] = cited from earlier work; for onset of effect / clinical response / time of maximal effect: pemphigus vulgaris

T1 sequence (A0A8I3P3Z9 1-664): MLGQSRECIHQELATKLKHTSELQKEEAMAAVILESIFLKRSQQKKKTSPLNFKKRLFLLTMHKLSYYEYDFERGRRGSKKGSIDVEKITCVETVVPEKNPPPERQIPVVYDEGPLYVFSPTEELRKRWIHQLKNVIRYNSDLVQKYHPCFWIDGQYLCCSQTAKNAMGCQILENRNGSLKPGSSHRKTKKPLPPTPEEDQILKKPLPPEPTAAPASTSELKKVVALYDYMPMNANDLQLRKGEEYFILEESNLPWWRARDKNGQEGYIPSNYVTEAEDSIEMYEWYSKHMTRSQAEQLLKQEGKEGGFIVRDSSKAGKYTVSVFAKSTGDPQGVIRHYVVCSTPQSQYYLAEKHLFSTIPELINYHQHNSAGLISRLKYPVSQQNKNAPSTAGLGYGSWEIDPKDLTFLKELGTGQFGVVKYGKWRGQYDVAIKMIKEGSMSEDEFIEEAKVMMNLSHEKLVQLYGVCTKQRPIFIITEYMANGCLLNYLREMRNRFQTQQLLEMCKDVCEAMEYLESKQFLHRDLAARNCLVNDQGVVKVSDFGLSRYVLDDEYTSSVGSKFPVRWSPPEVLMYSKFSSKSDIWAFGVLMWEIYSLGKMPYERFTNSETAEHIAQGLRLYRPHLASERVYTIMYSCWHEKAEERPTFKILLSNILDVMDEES

Molecule: CC(C)(C)/C=C(\C#N)C(=O)N1CCC[C@@H](n2nc(-c3ccc(Oc4ccccc4)cc3F)c3c(N)ncnc32)C1 [(R,E)-2-(3-(4-amino-3-(2-fluoro-4-phenoxyphenyl)-1H-pyrazolo[3,4-d]-pyrimidin-1-yl)piperidine-1-carbonyl)-4,4-dimethylpent-2-enenitrile]
- manifestation of clinical response compared with systemic corticosteroid therapy ([1]; dog PF): as rapid and comparable to that observed with systemic corticosteroid therapy
- corticosteroid-like adverse effects (polyuria, polydipsia, polyphagia or weight gain) ([1]; dog PF, oral 500 mg daily): none and No well-known corticosteroid-like adverse effects
- skin lesions by four weeks ([1]; dog PF, oral 500 mg daily, four weeks): completely healed
- time to clinical response (improved eating and ambulation) ([1]; dog PF, oral 500 mg daily, monotherapy): three
- clinical status at one week follow up visit ([1]; dog PF, oral 500 mg daily, one week): improved general health and commencement of pemphigus lesion healing
- clinical status after two weeks of treatment ([1]; dog PF, oral 500 mg daily, two weeks): general health of the dog was excellent and skin lesions continued to improve
- overall efficacy and safety in treatment of PF [1]: effective and safe
- overall efficacy and safety in treatment of PF ([1]; listed as (R, E)-2-(3-(4-amino-3-(2-fluoro-4-phenoxyphenyl)-1H-pyrazolo[3,4-d]-pyrimidin-1))): rapidly control dog PF
- receptor occupancy at 500 mg [2]: ~70%

Molecule: Belimumab: an anti-Blys antibody
- patients able to reduce corticosteroid use to <7.5 mg of prednisone ([3]; chronic SLE, week 40-52): ≤ 21% of patients (Benlysta US Product
- effect on improvement of chronic SLE [3]: modest and delayed effect on improvement

Molecule: Rituximab: anti-CD20 antibody rituximab, approved for treatment of B cell malignancies
- cases achieving remission ([4]; despite concomitant use of corticosteroids for 5 months): in only 64% of cases despite concomitant use
- onset of effect [4]: Rituximab has delayed effect in ANCA-
- side effects in treated patients ([5]; patients treated with rituximab): serious side effects such as pneumonia
- onset of effect / clinical response [5]: Rituximab has delayed effect in pemphigus
- time of maximal effect [5]: vulgaris with maximal effect at 8-12 weeks
- onset of effect / clinical response ([5]; listed as rituximab): significant delay in clinical response
- time of maximal effect ([5]; listed as rituximab): 8-12 weeks
